Like-named read-outs stand apart in the source and are kept apart here.
Experiments:
[1] = test system: TNFα-Stimulated NO2^− Production in EOC-20 Cells; experiment: TNFα-stimulated nitrite (NO2−) production in EOC-20 microglial cells, Griess assay; type: cell-based, mouse
Protocol: Cells were cultured in 24 well plates until confluent then treated with test agent, which was dissolved at 100× final concentration in dimethylsulfoxide (DMSO), or with vehicle only. Thirty minutes after treatment with test agent, cells were treated with 10 ng/mL recombinant mouse TNFα (Pharmingen, San Diego, Calif. USA). […] Each compound was tested at 100 μM, 20 μM, 4 μM, 0.8 μM and 0 μM in the presence of TNFα. Four wells of cells were used for each concentration of test agent.
(§1) Lower IC50 values indicate improved efficacy. FIG. 2 illustrates the principle of the measurement using NDGA as an example test agent. In order to determine viability, cell culture medium was replaced with phenol-free DMEM (Gibco) containing 20 μL/mL of MTT viability reagent (Promega). […] Control cells were taken to indicate 100% viability and intermediate values of MTT reduction were scaled to percentage of control. For each compound, an LD50 value was determined by extrapolation through sublethal concentrations. This value represents the concentration that reduced the MTT viability parameter by 50%.

EOC-20 cells = test system: EOC-20 cells
Protocol: as §1

[2] = Table III, 10 ng/mL TNFα, 24 hr, by interpolation
[3] = Table III, MTT viability, by extrapolation through sublethal concentrations
[4] = Mus musculus, 24 h, Table III, 10 ng/mL TNFα, 24 hr, by interpolation, read-out: IC50
[5] = Table III, 10 ng/mL TNFα, 24 hr, by interpolation, read-out: IC50
[6] = Mus musculus, Table V, read-out: IC50
[7] = Mus musculus, Table V, * obtained by linear extrapolation from points ≦100 μM, read-out: IC50
[8] = Table V, * obtained by linear extrapolation from points ≦100 μM
[9] = Mus musculus, Table III, 10 ng/mL TNFα, 24 hr, by interpolation, read-out: IC50

## Oc1ccc(C#CC/C=C/c2ccc(O)c(O)c2)cc1O [rooperol]
[1]; read-out: IC50
  IC50: 25 µM
EOC-20 cells
  cytotoxicity: nontoxic

## c1ccc2c(c1)ccc1c3ccccc3ccc21 [Chrysene]
[1]; [2]
  IC50: Inactive
EOC-20 cells; [3]
  LD50: nontoxic

## O=C(O)CCCC[C@@H]1CCSS1 (racemic) [Lipoic acid]
[1]; [2]
  IC50: Inactive

## COc1ccc(/C=C/c2cc(O)cc(O[C@@H]3O[C@H](CO)[C@@H](O)[C@H](O)[C@H]3O)c2)cc1O [Rhapontin (natural, rhubarb), Rhapontin]
[1]; [2]
  IC50: Inactive
EOC-20 cells
  LD50: nontoxic

## COc1cc(/C=C/C(=O)CC(=O)/C=C/c2ccc(OC(C)=O)c(OC)c2)ccc1OC(C)=O [curcumin diacetyl ester]
[1]; Table V, read-out: IC50
  IC50: 14 µM
EOC-20 cells; Table V
  LD50: Nontoxic

## C[C@@H]1C(=O)O[C@H]2C[C@@]34[C@H]5C[C@@H](C(C)(C)C)[C@]36[C@@H](OC(=O)[C@@H]6O)O[C@@]4(C(=O)O5)[C@]21O [gingkolide A]
[1]; [2]
  IC50: Inactive
EOC-20 cells; [3]
  LD50: nontoxic

## CC(C)Cc1ccc(C(C)C(=O)O)cc1 (stereo not drawn) [Ibuprofen]
[1]
  activity against TNFα-stimulated nitrite production: weak activity
[1]; [2]
  IC50: Inactive
[1]; Table V
  IC50: Inactive

## O=c1cc(-c2ccc(O)cc2)oc2cc(O)cc(O)c12 [4′,5,7-trihydroxy-flavone (apigenin), 4′,5,7-trihydroxy-flavone]
[1]; [4]
  IC50: 55 µM
EOC-20 cells; [3]
  LD50: 87 μm

## C[S+]([O-])c1ccc(-c2nc(-c3ccncc3)c(-c3ccc(F)cc3)[nH]2)cc1 (stereo not drawn) [SB203580]
EOC-20 cells; [3]
  LD50: 100 μm

## O=c1cc(-c2ccccc2)oc2ccccc12 [Flavone]
[1]; [4]
  IC50: 60 µM
EOC-20 cells; [3]
  LD50: 7 μm

## COc1cccc2c1cc([N+](=O)[O-])c1c(C(=O)O)cc3c(c12)OCO3 [Aristolochic acid]
[1]; Mus musculus
  IC50: 29 µM
EOC-20 cells; Table V
  LD50: 100 µM

## COC1=C(OC)C(=O)C(C/C=C(\C)CC/C=C(\C)CC/C=C(\C)CC/C=C(\C)CC/C=C(\C)CC/C=C(\C)CC/C=C(\C)CC/C=C(\C)CC/C=C(\C)CCC=C(C)C)=C(C)C1=O [coenzyme O]
[1]; [2]
  IC50: Inactive
EOC-20 cells
  LD50: nontoxic

## N#CC(C#N)=C(N)/C(C#N)=C/c1cc(O)c(O)c(O)c1 [Tyrphostin 51]
[1]; [2]
  IC50: Inactive
EOC-20 cells; [3]
  LD50: nontoxic

## CCOc1ccc(CC(C)C(C)Cc2ccc(OCC)c(OCC)c2)cc1OCC (stereo not drawn) [Tetra-ethyl ether of NDGA (synthetic), Tetra-ethyl ether of NDGA]
[1]; read-out: IC50
  IC50: 0.8 µM

## O=c1c(O)c(-c2ccccc2)oc2ccccc12 [3-OH-flavone]
[1]; [5]
  IC50: 70 µM
EOC-20 cells
  LD50: 125 μm

## CC(C)c1ccc2c(c1)c(SC(C)(C)C)c(CC(C)(C)C(=O)O)n2Cc1ccc(Cl)cc1 [MK-886]
[1]; Table V, read-out: IC50
  IC50: 41 µM
EOC-20 cells
  LD50: 40 µM

## CC(C)(C)[N+]([O-])=Cc1cccc(O)c1 [3-OH-PBN]
[1]; [2]
  IC50: Inactive
EOC-20 cells; [3]
  LD50: nontoxic

## O=C(/C=C/c1ccc(O)c(O)c1)O[C@H](Cc1ccc(O)c(O)c1)C(=O)O [Rosemarinic acid]
[1]; [4]
  IC50: 139 µM
EOC-20 cells
  LD50: nontoxic

## C[C@H](Cc1ccc(O)c(O)c1)[C@@H](C)Cc1ccc(O)c(O)c1 [NDGA (natural), nordihydroguaiaretic acid]
[1]; [4]
  IC50: 3.1 µM
[1]; [6]
  IC50: 3 µM

## COc1ccc(-c2coc3cc(O)ccc3c2=O)cc1
[1]; [4]
  IC50: 106 µM
EOC-20 cells; mouse
  LD50: 126 μm

## CN(C)c1ccc(O)c2c1C[C@H]1C[C@H]3[C@H](N(C)C)C(O)=C(C(N)=O)C(=O)[C@@]3(O)C(O)=C1C2=O [Minocycline]
[1]; [4]
  IC50: 49 µM

## C[C@H](Cc1ccc(O)c(O)c1)[C@@H](C)Cc1ccc(O)c(O)c1 [NDGA (synthetic), nordihydroguaiaretic acid]
[1]; [5]
  IC50: 4 µM
[1]; Table V, read-out: IC50
  IC50: 4 µM

## CC(C)(C)[N+]([O-])=Cc1ccc(O)cc1 [4-OH-PBN]
[1]; [2]
  IC50: Inactive
EOC-20 cells; [3]
  LD50: nontoxic

## CC(C)(C)[N+]([O-])=Cc1ccccc1O [2-OH-PBN]
[1]; [2]
  IC50: Inactive
EOC-20 cells; [3]
  LD50: nontoxic

## CN(C)[C@@H]1C(O)=C(C(N)=O)C(=O)[C@@]2(O)C(O)=C3C(=O)c4c(O)cccc4[C@@](C)(O)[C@H]3[C@H](O)[C@@H]12 [Oxyletracycline]
[1]; [5]
  IC50: 64 µM

## O=c1oc2c(O)c(O)cc3c(=O)oc4c(O)c(O)cc1c4c23 [Ellagic acid]
[1]; [4]
  IC50: 110 µM
EOC-20 cells
  LD50: nontoxic

## c1cc2c(cc1[C@H]1OC[C@H]3[C@@H]1CO[C@@H]3c1ccc3c(c1)OCO3)OCO2 [Sesamin, sesamin]
[1]; [6]
  IC50: 42 µM
EOC-20 cells; Table V
  LD50: Nontoxic

## O=c1c(-c2ccc(O)cc2)coc2cc(O)cc(O)c12 [4′,5,7-trihydroxy-isoflavone (genistein), 4′,5,7-trihydroxy-isoflavone]
[1]; [4]
  IC50: 46 µM
EOC-20 cells; [3]
  LD50: nontoxic

## C(=C\c1ccccc1)/c1ccccc1 [Trans-stilbene, Trans- stilbene]
[1]; [2]
  IC50: Inactive
EOC-20 cells
  LD50: nontoxic

## CS(=O)(=O)Nc1ccc([N+](=O)[O-])cc1Oc1ccccc1 [Nimesulide]
[1]; [6]
  IC50: 20 µM

## O=c1c(O)c(-c2ccccc2)oc2cc(O)cc(O)c12 [3,5,7-trihydroxy-flavone (galangin), 3,5,7-trihydroxy-flavone]
[1]; [4]
  IC50: 41 µM
EOC-20 cells; mouse
  LD50: 58 μm

## CC(C)(C)/[N+]([O-])=C/c1ccccc1 [phenyl N tert-butyl-nitrone (PBN), phenyl N tert-butyl-nitrone]
[1]; [5]
  IC50: 100 µM
EOC-20 cells; [3]
  LD50: nontoxic

## O=c1cc(-c2ccccc2)oc2cc(O)ccc12 [7-OH-flavone, 7-OH-flavone]
[1]; [5]
  IC50: 65 µM
EOC-20 cells; [3]
  LD50: 125 μm

## CS(=O)(=O)Nc1ccc([N+](=O)[O-])cc1OC1CCCCC1 [NS-398]
[1]
  activity against TNFα-stimulated nitrite production: essentially inactive
[1]; [7]
  IC50: 108 µM
EOC-20 cells; [8]
  LD50: 129* μM

## S=C(S)N1CCCC1 [pyrollidine dithiocarbamate (PDTC), pyrollidine dithiocarbamate]
[1]; [5]
  IC50: 51 µM
EOC-20 cells; [3]
  LD50: 90 μm

## CC(c1cc2ccccc2s1)N(O)C(N)=O (stereo not drawn) [Zileuton]
[1]
  activity against TNFα-stimulated nitrite production: approximately as effective as minocycline
[1]; [7]
  IC50: 105 µM
EOC-20 cells
  LD50: Nontoxic

## N#CC(C#N)=Cc1ccc([N+](=O)[O-])c(O)c1 [Tyrphostin AG126]
[1]; [5]
  IC50: 18 µM
EOC-20 cells; [3]
  LD50: 150 μm

## COc1ccc(-c2coc3cc(O)cc(O)c3c2=O)cc1 [4′-methoxy-5,7-dihydroxyisoflavone]
[1]; [4]
  IC50: 49 µM
EOC-20 cells; mouse
  LD50: 112 μm

## COc1cc(O)c2c(=O)c(-c3ccc(O)cc3)coc2c1 [4′,5-dihydroxy-7-methoxy-isoflavone]
[1]; [9]
  IC50: 120 µM
EOC-20 cells; [3]
  LD50: nontoxic

## Cc1c(C)c2c(c(C)c1O)CC[C@@](C)(CCC[C@H](C)CCC[C@H](C)CCCC(C)C)O2 [alpha tocopherol]
[1]; [2]
  IC50: Inactive
EOC-20 cells
  LD50: nontoxic

## CC(=O)Oc1ccc(CC(C)C(C)Cc2ccc(OC(C)=O)c(OC(C)=O)c2)cc1OC(C)=O (stereo not drawn) [NDGA tetraacetyl ester]
[1]; Table V, read-out: IC50
  IC50: 5 µM
EOC-20 cells; Table V
  LD50: Nontoxic

## COc1ccc2c(c1)c(CC(=O)O)c(C)n2C(=O)c1ccc(Cl)cc1 [Indomethacin]
[1]
  activity against TNFα-stimulated nitrite production: weak activity
[1]; [4]
  IC50: 61 µM
[1]; [6]
  IC50: 61 µM
EOC-20 cells; [3]
  LD50: 124 μm
EOC-20 cells; [8]
  LD50: 124* μM

## CN(C)[C@@H]1C(O)=C(C(N)=O)C(=O)[C@@]2(O)C(O)=C3C(=O)c4c(O)cccc4[C@@](C)(O)[C@H]3C[C@@H]12 [Tetracycline]
[1]; [9]
  IC50: 85 µM
EOC-20 cells
  LD50: nontoxic

## C[C@@H]1C(=O)O[C@H]2[C@@H](O)[C@@]34[C@H]5C[C@@H](C(C)(C)C)[C@]36[C@@H](OC(=O)[C@@H]6O)O[C@@]4(C(=O)O5)[C@@]12O [gingkolide B]
[1]; [2]
  IC50: Inactive
EOC-20 cells; [3]
  LD50: nontoxic

## O=C(/C=C/c1ccc(O)c(O)c1)c1ccc(O)cc1O [butein (2′,4′,3,4-tetrahydroxychalcone), 2′,4′,3,4-tetrahydroxychalcone]
[1]; [4]
  IC50: 5.1 µM
EOC-20 cells; mouse
  LD50: 77 μm
